Experiments:
βBTK Y223 = βBTK Y223 (Homo sapiens (Human), UniProt Q06187); assay: Intracellular βBTK Y223 phosphorylation HTRF in Ramos cells; format: cell-based
Description: The compound was predissolved in 100% DMSO. […] 20 μl of lysate (4× lysate: blocked mother liquor is 25:1) was added to each well and incubated for 30 minutes at 25° C. on a shaker. It was shaken on an oscillator at 800 rpm for 1 minute. […] The half-inhibitory concentration IC50 was calculated by fitting with XLFIT 5.0 software (IDBS, UK).

wild-type EGFR kinase = wild-type EGFR kinase (Homo sapiens (Human), UniProt P00533); assay: Wild type EGFR kinase inhibition test (z-lyte); format: biochemical; conditions: 10 μM ATP; read-out: EGFR WT IC50
Sequence of wild-type EGFR kinase (P00533 25-1210): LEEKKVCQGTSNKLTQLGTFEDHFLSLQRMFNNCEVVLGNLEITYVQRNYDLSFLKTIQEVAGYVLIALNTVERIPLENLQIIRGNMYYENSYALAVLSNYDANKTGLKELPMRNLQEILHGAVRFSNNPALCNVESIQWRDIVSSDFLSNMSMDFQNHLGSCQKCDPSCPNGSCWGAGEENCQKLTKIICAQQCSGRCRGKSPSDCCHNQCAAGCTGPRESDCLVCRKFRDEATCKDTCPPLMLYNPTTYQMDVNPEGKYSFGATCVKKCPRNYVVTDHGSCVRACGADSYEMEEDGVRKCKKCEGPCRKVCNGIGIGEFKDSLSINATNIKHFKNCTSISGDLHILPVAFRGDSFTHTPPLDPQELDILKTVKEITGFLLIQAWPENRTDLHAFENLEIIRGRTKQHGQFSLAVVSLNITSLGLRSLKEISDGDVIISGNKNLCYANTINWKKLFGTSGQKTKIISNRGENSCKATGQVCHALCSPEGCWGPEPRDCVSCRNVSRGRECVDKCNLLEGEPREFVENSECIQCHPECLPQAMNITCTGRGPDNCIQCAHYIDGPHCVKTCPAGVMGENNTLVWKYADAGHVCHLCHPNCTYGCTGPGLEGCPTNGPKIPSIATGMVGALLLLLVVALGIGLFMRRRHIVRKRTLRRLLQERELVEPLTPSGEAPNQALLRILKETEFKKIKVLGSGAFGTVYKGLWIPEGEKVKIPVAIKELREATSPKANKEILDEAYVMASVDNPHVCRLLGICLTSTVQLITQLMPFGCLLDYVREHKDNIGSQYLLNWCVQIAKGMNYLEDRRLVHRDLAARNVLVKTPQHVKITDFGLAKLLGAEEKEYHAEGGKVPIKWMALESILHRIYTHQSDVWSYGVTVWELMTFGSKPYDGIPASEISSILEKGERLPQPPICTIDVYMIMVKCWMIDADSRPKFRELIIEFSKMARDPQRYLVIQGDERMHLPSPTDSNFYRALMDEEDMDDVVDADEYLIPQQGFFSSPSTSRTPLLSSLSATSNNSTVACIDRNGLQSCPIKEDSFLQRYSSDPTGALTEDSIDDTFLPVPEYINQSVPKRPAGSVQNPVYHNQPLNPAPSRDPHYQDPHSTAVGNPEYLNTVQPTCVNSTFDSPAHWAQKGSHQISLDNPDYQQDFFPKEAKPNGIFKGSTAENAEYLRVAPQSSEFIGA
Description: All the following reagents used in z-lyte test are commercially available from Invitrogen.
The calculation method for the inhibition ratio (referring to the specification of Invitrogen, PV3363) was as follows: ER=Coumarin Emission(450 nm)/Fluorescein Emission(520 nm) 1. Phosphorylation ratio=(1−((ER×C3520nm−C3450nm)/((C1450nm−C3450nm)+ER×(C3520nm−C1520nm))))×100% 2. Inhibition ratio (IR)=(1−phosphorylation ratio of the test compound)/(phosphorylation ratio of C2))×100% 3.
The half-inhibitory concentration IC50 was calculated by fitting with XLFIT 5.0 software (IDBS, UK).

BTK WT = BTK WT (Homo sapiens (Human), UniProt Q06187); assay: Lantha screening kinase reaction, inhibition of BTK WT; format: biochemical
Sequence of BTK WT (Q06187 whole entry): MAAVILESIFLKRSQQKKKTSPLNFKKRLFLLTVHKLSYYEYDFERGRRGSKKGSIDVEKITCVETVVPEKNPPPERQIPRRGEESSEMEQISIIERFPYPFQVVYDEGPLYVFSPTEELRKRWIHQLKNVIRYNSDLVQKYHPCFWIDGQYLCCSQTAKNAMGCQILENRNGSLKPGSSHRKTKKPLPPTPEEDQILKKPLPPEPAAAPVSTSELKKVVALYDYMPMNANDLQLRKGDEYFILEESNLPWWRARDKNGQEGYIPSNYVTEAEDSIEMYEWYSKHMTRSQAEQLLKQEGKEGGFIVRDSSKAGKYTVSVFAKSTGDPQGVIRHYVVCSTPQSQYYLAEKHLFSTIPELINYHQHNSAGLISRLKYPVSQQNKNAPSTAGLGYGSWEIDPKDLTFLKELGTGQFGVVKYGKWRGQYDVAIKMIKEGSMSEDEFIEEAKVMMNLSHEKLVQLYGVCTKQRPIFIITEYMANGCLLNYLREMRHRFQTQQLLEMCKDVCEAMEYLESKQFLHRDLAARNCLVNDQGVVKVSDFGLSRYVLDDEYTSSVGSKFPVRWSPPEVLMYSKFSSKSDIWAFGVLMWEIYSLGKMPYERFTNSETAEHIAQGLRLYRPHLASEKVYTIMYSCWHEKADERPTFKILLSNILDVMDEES
Description: The compound was predissolved in 100% DMSO. 10 mM drug stock solution was obtained by dissolution at room temperature and then serially diluted with 8 vol % DMSO solution to a final concentration of 10-0.005 μM. […] Among the wells, the kinase in the blank well was replaced with a reaction buffer and the kinase well (Enzyme) was not added with any drug. After shaking at 25° C. for 60 minutes in the dark, 10 μl of Detection Solution (mixture of Invitrogen PV3528 and EDTA, which was diluted with TR-FRET dilution buffer, the working concentration of EDTA was 5 mM, the working concentration of Lanthascreening Tb PY20 antibody was 0.2 nM) was added and shaken at room temperature for 30 minutes. The plates were read on a VictorX5 fluorescent plate reader (PerkinElmer) and the light absorption at an excitation wavelength of 340 nm and emission wavelengths of 500 nm and 520 nm was measured.
The calculation method for the inhibition ratio (referring to the specification of Invitrogen, PV3363) was as follows: Emission ratio (ER):Coumarin Emission (520 nm)/Fluorescein Emission (500 nm) 1. The inhibition ratio (IR):(ERkinase−ERtest compound)/(ERkinase−ERblank)×100%. 2.
The half-inhibitory concentration IC50 was calculated by fitting with XLFIT5.0 software (IDBS, UK).

in vivo = conditions: mouse, in vivo, po, 30 mg/kg
Description: Test Animals: ICR mice, weight 28-30 g, male, totally 12, purchased from SLAC Laboratory Animal Co., Ltd. Mice were fasting one night before administration and freely fed 4 hours after administration.
Administration and Blood collection: 6 mice were administered intragastrically (PO) in a administered dosage of 30 mg/kg and a administered volume of 10 mL/kg. One administration route was subjected with 6 mice, blood samples of three mice were collected at one time point, and blood samples of another three mice were collected at alternate time point alternately. Blood was collected at 8 time points of 0.083, 0.25, 0.5, 1, 2, 4, 8, 24 h after administration respectively.
Animals were manually controlled at the time of collection and approximately 80 μL of blood was collected from the mice fundus venous plexus into a tube containing K2EDTA. The collected blood sample was put on wet ice, centrifuged within 15 min (8000 rpm, 4 min at 4° C.), and then the plasma sample was taken and stored at minus 20° C. till analysis. The compounds were prepared on the day of the experiment.
Solvent excipient information: DMSO (brand: Sigma, batch number: SHBD2446V); 2-hydroxypropyl-3-cyclodextrin (brand: Sigma, batch number: BCBN8227V), acetic acid (brand: Sinopharm Group, batch number: 20150616), sodium acetate (Brand: GENERAL-REAGENT, batch number: P1246037).
Preparation of a 3 mg/mL PO dosing solution: the solvent was a solution of 5% DMSO and 95% PH4.5 (sodium acetate-acetate) in 20% of 2-hydroxypropyl-β-cyclodextrin.
Analytical method: Plasma samples were analyzed by liquid chromatography-tandem mass spectrometry (Instrument type: Triple Quad™ 4000).
Preparation of the standard curve: preparing a standard curve of the test compound 1n the plasma matrix of ICR mice with a linear range of 1.00-3000 ng/mL, and preparing control samples at low, medium and high concentrations of 3 ng/mL, 500 ng/mL, and 2400 ng/mL respectively.
Treatment of biological samples: the frozen plasma samples were thawed on ice, and after the samples were thawed, they were vortexed on a vortex for 5 min. 20 μL of plasma sample was added to a 96-well plate, and 200 μL of acetonitrile (brand: Merck, Lot: 1854029643) containing an internal standard dexamethasone (Brand: NIFDC, Lot: 1N2V-DPGY, 2000 ng/mL) was added to precipitate protein, which were vortexed for 5 min, and then centrifuged at 3700 rpm and 4° C. for 15 min. The supernatant was extracted and twice centrifuged under the same conditions, and finally 2 μL of the supernatant solution was analyzed by LC-MS/MS.

Sequence of βBTK Y223 (Q06187 whole entry): as above

| Compound | IC50 (βBTK Y223) [nM] | IC50 (wild-type EGFR kinase) [nM] | IC50 (BTK WT) [nM] | Area under curve AUC (in vivo) [ng·h/mL] | Maximum blood concentration Cmax (in vivo) [ng/mL] | Oral relative bioavailability F (%) (in vivo) | Tmax (in vivo) [min] | half-time T1/2 (in vivo) [h] |
| --- | --- | --- | --- | --- | --- | --- | --- | --- |
| C=CC(=O)N1CCCC(Nc2nc(Nc3ccc(OCCOC)cc3)c3c(c2F)CNC3=O)C1 (centres unmarked) [Compound G-2, 6-(1-acryloylpiperidin-3-ylamino)-7-fluoro-4-(4-(2-methoxyethoxy)phenylamino)-1H-pyrrolo[3,4-c]pyridine-3 (2H)-one] | 5 | 1620 | 3 |  |  |  |  |  |
| C=CC(=O)N1CCCCC(Nc2nc(Nc3ccc(OCCOC)cc3)c3c(c2F)CNC3=O)C1 (centres unmarked) [Compound G-3, 6-(1-acryloylazacycloheptane-3-ylamino)-7-fluoro-4-(4-(2-methoxyethoxy)phenylamino)-1H-pyrrolo[3,4-c]pyridine-3 (2H)-one] | 11 | 2290 | 2 |  |  |  |  |  |
| C=CC(=O)N1CCCC(Nc2nc(Nc3ccc(OCCOC)cc3)c3c(c2F)CNC3=O)CC1 (centres unmarked) [Compound G-4] | 23 | 2370 | 7 |  |  |  |  |  |
| C=CC(=O)N1CC(Nc2nc(Nc3ccc(OCCOC)cc3)c3c(c2F)CNC3=O)C1 [Compound G-5] | 59 | 1910 | 48 |  |  |  |  |  |
| C=CC(=O)N1CCC(Nc2nc(Nc3ccc(OCCOC)cc3)c3c(c2F)CNC3=O)CC1 [Compound G-6] | 29 |  |  |  |  |  |  |  |
| C=CC(=O)N1CCCC(Nc2nc(Nc3cnn(C4CCOCC4)c3)c3c(c2F)CNC3=O)C1 (centres unmarked) [Compound G-10] | 7 | 1740 | 3 |  |  |  |  |  |
| C=CC(=O)N1CCCC(Nc2nc(Nc3ccc(N4CCN(C)CC4)cc3)c3c(c2F)CNC3=O)C1 (centres unmarked) [Compound G-11] | 2 | 4250 | 1 |  |  |  |  |  |
| C=CC(=O)N1CCCC(Nc2nc(Nc3ccc(N4CCN(C)CC4)cn3)c3c(c2F)CNC3=O)C1 (centres unmarked) [Compound G-12] | 80 | 3850 | 21 |  |  |  |  |  |
| C=CC(=O)N1CCCC(Nc2nc(Nc3cnn(C4CCS(=O)(=O)CC4)c3)c3c(c2F)CNC3=O)C1 (centres unmarked) [Compound G-13] | 45 | 1600 | 3 |  |  |  |  |  |
| C=CC(=O)N1CCCC(Nc2nc(Nc3cnn(C4CN(C)CC4F)c3)c3c(c2F)CNC3=O)C1 (centres unmarked) [Compound G-15] | 5 | 1220 | 3 |  |  |  |  |  |
| C=CC(=O)N1CCCC(Nc2nc(Nc3ccc(N4CCOCC4=O)cc3)c3c(c2F)CNC3=O)C1 (centres unmarked) [Compound G-17] | 16 | 1500 | 2 |  |  |  |  |  |
| C=CC(=O)N1CCCC(Nc2nc(Nc3cc(C)ns3)c3c(c2F)CNC3=O)C1 (centres unmarked) [Compound G-23] |  | 1800 | 5 | 645 | 878.7 | 14 | 4.8 | 3.25 |
| C=CC(=O)N1CCCC(Nc2nc(Nc3cnn(C)c3)c3c(c2F)CNC3=O)C1 (centres unmarked) [Compound G-25] | 2 | 1090 | 2 |  |  |  |  |  |
| C=CC(=O)N1CCCCC(Nc2nc(Nc3ccc(N4CCOCC4)cc3)c3c(c2F)CNC3=O)C1 (centres unmarked) [Compound G-27] | 11 | 3690 | 5 |  |  |  |  |  |

Source: patent US11155546B2, “4,6,7-trisubstituted 1,2-dihydropyrrolo[3,4-c]pyridin/pyrimidin-3-one derivatives and uses thereof” (SHANGHAI HAIYAN PHARMACEUTICAL TECHNOLOGY CO., LTD., priority 2017, dated 2021)
